Test results from patent publication US9012365B2, “Compatibility agents for herbicidal formulations comprising 2,4-(Dichlorophenoxy) acetic acid salts” (priority 2006, dated 2015).
Where “and” joins values, the source holds several entries; their conditions need not be identical. Identical values can stand only once.

Test: Appearance of 10 g solution of (2.5 wt % ai 2,4-D DMA + tested chemical) after adding 40% AMS
Format: physicochemical
Settings: 2.5 wt % ai 2,4-D DMA; for Addition Weight of 40% AMS: System was cloud after adding / Addition Weight of 40% AMS: System was clear after adding: 10 g solution
Description: In this example, the appearance of a 10 g solution of (2.5 wt % ai 2,4-D DMA+tested chemical) was evaluated after adding 40% AMS

[1] = 0.13 wt % a.i. of tested chemical, 0 gram 40% AMS
[2] = 0.13 wt % a.i. of tested chemical
[3] = 0.04 wt % a.i. of tested chemical
[4] = 1.25 wt % a.i. of tested chemical
[5] = 0.05 wt % a.i. of tested chemical

| Compound | 0 gram Appearance [1] | Addition Weight of 40% AMS: System was cloud after adding [2] | Addition Weight of 40% AMS: System was clear after adding [2] | further results |
| --- | --- | --- | --- | --- |
| CCCCOCCOC(C)=O [Butyl cellosolve Acetate (C4—O—C—C—OOCC), Butyl cellosolve Acetate] | Clear | 0.324 grams | 0.162 grams | – |
| Nonylphenol-9EO | Clear | 0.601 grams | 0.473 grams | – |
| Alkyl ether citrate | Clear | 0.509 grams | – | – |
| Nonylphenol-4EO | cloudy | 0 grams | cloudy | – |
| Tall oil fatty acid-4EO | very cloudy | 0 grams | very cloudy | – |
| C10-12 alcohol ethoxylate (5EO) | Clear | 1.226 grams | 1.035 grams | – |
| 2-ethylhexyl glycoside | Clear | 0.226 grams | – | – |
| C8-10 + 4 EO phosphate ester (acid) | Clear | 0.488 grams | – | – |
| Tallowamine-6EO | Clear | 1.751 grams | 1.485 grams | – |
| C6-10 isopropylamine alcohol ether sulfate | Clear | 0.712 grams | 0.528 grams | – |
| CCCCCCCCCCCCOS(=O)(=O)[O-].[Na+] [Sodium lauryl sulfate] | – | – | – | 0 gram Appearance [3]: Clear; Addition Weight of 40% AMS: System was cloud after adding [3]: 0.101 grams |
| CCCCCCCCCCCC[N+](C)(C)CC(=O)[O-] [Lauryldimethyl betaine] | – | – | – | 0 gram Appearance [4]: Clear; Addition Weight of 40% AMS: System was clear after adding [4]: 0.693 grams; Addition Weight of 40% AMS: System was cloud after adding [4]: 0.913 grams |
| 2-propylheptanol-5 EO | Clear | 0.633 grams | – | – |
| Tallowamine-14EO | Clear | 1.526 grams | 1.273 grams | – |
| Phenol ethoxylate | Clear | 0.577 grams | – | – |
| C8-10 glycosides [AG 6210] | Clear | 1.212 grams | 1 grams | – |
| Nonylphenol-12EO | Clear | 0.502 grams | 0.415 grams | – |
| Propyl glycosides | Clear | 0.329 grams | – | – |
| Nonylphenol-30EO | Clear | 0.584 grams | 0.487 grams | – |
| Sodium lauryl olefin sulfonate | Clear | 2.546 grams | 1.896 grams | 0 gram Appearance [5]: Clear; Addition Weight of 40% AMS: System was clear after adding [5]: 1.526 grams; Addition Weight of 40% AMS: System was cloud after adding [5]: 2.121 grams |
| Nonylphenol-9EO carboxylate | Clear | 1.692 grams | 1.312 grams | – |
| Tallow acid + triethanolamine + 10EO | Clear | 3.049 grams | 2.087 grams | – |
| Sodium xylene sulfonate | Clear | 0.524 grams | – | – |

Further lines, with some results ahead:

| 0 gram Appearance [1] | Addition Weight of 40% AMS: System was cloud after adding [2] | Addition Weight of 40% AMS: System was clear after adding [2] | Compound | further results |
| --- | --- | --- | --- | --- |
| Clear | 0.096 grams | – | Cocoamine-2EO oxide | – |
| Clear | 1.033 grams and 1.026 grams | 0.829 grams and 0.903 grams | C10-12 alcohol ethoxylate (7EO) | – |
| Clear | 0.324 grams | – | Iso C13 + 4EO phosphate ester (acid) | – |
| Clear | 2.235 grams | 1.084 grams | Tristyrylphenol + 16EO | – |
| Clear | 0.987 grams | 0.701 grams | Cocamide DEA | – |
| Clear | 0.684 grams | 0.458 grams | Trideceth-8 | – |
| Clear | 1.633 grams | 1.478 grams | Cocoamine-5EO | – |
| Clear | 0.272 grams | – | C9-C11 glycoside | – |
| Clear | 0.71 grams | 0.661 grams | Polyoxyethylene Sorbitol Tallate | – |
| Clear | 0.756 grams | 0.482 grams | Soya acid ethoxylate-10EO | – |
| Clear | 2.509 grams | 2.102 grams | Tristyrylphenol + 15EO | – |
| Clear | 0.717 grams | 0.47 grams | Trideceth-6 | – |
| Clear | 1.513 grams | 1.31 grams | Tallowamine-2EO | – |
| Clear | 2.014 grams | 1.731 grams | Tallowamine-15EO methylchloride | – |
| Clear | 0.163 grams | – | Ethoxylated (6EO) caprylic & capric glycerol ester | – |
| cloudy | 0 grams | cloudy | Trideceth-4 | – |
| Clear | 0.459 grams | 0.261 grams | Oleylamphopolycarboxyglycinate | – |
| Clear | 4.058 grams | 3.521 grams | Coco duoamine-3EO | – |
| Clear | 0.918 grams | 0.819 grams | C11 alcohol ethoxylate (5EO) | – |
| Clear | 0.217 grams | – | C8-10 glycosides [Agnique PG 8166] | – |
